Experimental data taken from ChEMBL document CHEMBL4616706 (ACS Med Chem Lett, 2020).
≈ marks a conversion by molar mass, not a printed value.

System: not listed separately
Test: Clearance in human hepatocytes assessed per million cells
Format: ADME, cell-based, Hepatocyte
Details: read-out: CLH; call rule not given here

| Structure (SMILES) | hepatocyte CLint [µL/min/1e6 cells] |
| --- | --- |
| Cc1cc(N2C[C@H]3CC[C@@H](C2)[C@@H]3Nc2nc3n(n2)CCCC[C@H]3c2ccc(F)c(F)c2F)ncn1 | 4.5 |
| Cc1cc(N2C[C@H]3CC[C@@H](C2)[C@@H]3Nc2nc3n(n2)CCCN3c2cc(F)cc(F)c2)ncn1 | 2.4 |

System: not listed separately
Test: Terminal half life in Wistar rat at 1 mg/kg, iv administered as single dose
Format: ADME, organism-based
Details: in vivo, read-out: beta t1/2 (converted)

| Structure (SMILES) | half-life [h] |
| --- | --- |
| Cc1cc(N2C[C@H]3CC[C@@H](C2)[C@@H]3Nc2nc3n(n2)CCCN3c2cc(F)cc(F)c2)ncn1 | 4.6 |

System: not listed separately
Test: Solubility of compound by LYSA assay
Format: physicochemical
Details: not given

| Structure (SMILES) | solubility [µg/mL] |
| --- | --- |
| Cc1cc(N2C[C@H]3CC[C@@H](C2)[C@@H]3Nc2nc3n(n2)CCCN3c2cc(F)cc(F)c2)ncn1 | 6 (≈ 13.3 µM) |

Biological target: Gamma-secretase
Test: Modulation of gamma secretase in human H4 cells overexpressing human APP695 harboring K595N/M596L Swedish double mutant assessed as reduction in free amyloid beta (1 to 42 residues) production measured after 24 hrs by AlphaLISA assay
Format: cell-based
Details: not given

| Structure (SMILES) | IC50 [nM] |
| --- | --- |
| Cc1cc(N2C[C@H]3CC[C@@H](C2)[C@@H]3Nc2nc3n(n2)CCCC[C@H]3c2ccc(F)c(F)c2F)ncn1 | 4 |

System: not listed separately
Test: Oral bioavailability in C57BL/6J mouse at 3 mg/kg administered as single dose
Format: ADME, organism-based
Details: in vivo

| Structure (SMILES) | bioavailability [%] |
| --- | --- |
| Cc1cc(N2C[C@H]3CC[C@@H](C2)[C@@H]3Nc2nc3n(n2)CCCC[C@H]3c2ccc(F)c(F)c2F)ncn1 | 53 |

Biological target: P-gp (ABCB1) (Homo sapiens, UniProt P08183)
Test: Substrate activity at human P-gp assessed as efflux ratio
Format: ADME
Details: not told

P-gp (ABCB1), sequence (P08183 whole entry): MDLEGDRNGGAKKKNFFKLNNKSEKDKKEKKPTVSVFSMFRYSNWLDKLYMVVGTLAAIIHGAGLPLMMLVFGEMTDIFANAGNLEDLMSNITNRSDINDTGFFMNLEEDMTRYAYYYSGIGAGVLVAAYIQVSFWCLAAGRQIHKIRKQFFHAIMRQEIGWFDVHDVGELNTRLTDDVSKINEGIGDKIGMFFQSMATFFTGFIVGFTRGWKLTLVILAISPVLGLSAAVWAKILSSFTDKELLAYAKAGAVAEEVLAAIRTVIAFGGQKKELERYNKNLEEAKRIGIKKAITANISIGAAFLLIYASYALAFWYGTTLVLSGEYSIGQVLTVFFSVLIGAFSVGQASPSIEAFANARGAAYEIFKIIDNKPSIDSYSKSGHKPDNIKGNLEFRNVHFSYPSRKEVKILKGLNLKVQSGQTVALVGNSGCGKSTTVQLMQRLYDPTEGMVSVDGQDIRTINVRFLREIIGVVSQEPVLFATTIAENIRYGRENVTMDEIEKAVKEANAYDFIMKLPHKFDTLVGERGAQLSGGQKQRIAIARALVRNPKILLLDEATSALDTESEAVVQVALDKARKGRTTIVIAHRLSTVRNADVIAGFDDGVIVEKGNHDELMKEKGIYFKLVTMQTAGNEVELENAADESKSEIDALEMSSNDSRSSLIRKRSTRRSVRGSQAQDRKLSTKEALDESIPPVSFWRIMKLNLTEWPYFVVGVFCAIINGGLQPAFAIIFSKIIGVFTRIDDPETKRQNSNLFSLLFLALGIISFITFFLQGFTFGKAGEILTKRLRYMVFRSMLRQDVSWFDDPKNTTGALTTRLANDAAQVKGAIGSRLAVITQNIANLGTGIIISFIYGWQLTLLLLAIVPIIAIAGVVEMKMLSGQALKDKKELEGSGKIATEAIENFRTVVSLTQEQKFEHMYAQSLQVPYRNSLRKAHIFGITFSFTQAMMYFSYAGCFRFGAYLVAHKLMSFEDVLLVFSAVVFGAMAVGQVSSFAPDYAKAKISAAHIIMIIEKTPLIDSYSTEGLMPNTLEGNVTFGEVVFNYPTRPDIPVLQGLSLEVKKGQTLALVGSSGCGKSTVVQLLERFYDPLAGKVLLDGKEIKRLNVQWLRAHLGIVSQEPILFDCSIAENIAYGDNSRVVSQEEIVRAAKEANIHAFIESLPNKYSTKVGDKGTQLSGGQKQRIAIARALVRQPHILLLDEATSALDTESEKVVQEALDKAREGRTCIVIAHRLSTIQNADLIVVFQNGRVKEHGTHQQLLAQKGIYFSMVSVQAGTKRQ

| Structure (SMILES) | efflux ratio |
| --- | --- |
| Cc1cc(N2C[C@H]3CC[C@@H](C2)[C@@H]3Nc2nc3n(n2)CCCC[C@H]3c2ccc(F)c(F)c2F)ncn1 | 2.4 |

System: not listed separately
Test: Volume of distribution at steady state in C57BL/6J mouse at 1 mg/kg, iv administered as single dose
Format: ADME, organism-based
Details: in vivo, read-out: Vdss

| Structure (SMILES) | Vd [L/kg] |
| --- | --- |
| Cc1cc(N2C[C@H]3CC[C@@H](C2)[C@@H]3Nc2nc3n(n2)CCCC[C@H]3c2ccc(F)c(F)c2F)ncn1 | 1.1 |

Biological target: hERG (KCNH2) (Homo sapiens, UniProt Q12809)
Test: (§1) Inhibition of human ERG
Details: human

hERG (KCNH2), sequence (Q12809 whole entry): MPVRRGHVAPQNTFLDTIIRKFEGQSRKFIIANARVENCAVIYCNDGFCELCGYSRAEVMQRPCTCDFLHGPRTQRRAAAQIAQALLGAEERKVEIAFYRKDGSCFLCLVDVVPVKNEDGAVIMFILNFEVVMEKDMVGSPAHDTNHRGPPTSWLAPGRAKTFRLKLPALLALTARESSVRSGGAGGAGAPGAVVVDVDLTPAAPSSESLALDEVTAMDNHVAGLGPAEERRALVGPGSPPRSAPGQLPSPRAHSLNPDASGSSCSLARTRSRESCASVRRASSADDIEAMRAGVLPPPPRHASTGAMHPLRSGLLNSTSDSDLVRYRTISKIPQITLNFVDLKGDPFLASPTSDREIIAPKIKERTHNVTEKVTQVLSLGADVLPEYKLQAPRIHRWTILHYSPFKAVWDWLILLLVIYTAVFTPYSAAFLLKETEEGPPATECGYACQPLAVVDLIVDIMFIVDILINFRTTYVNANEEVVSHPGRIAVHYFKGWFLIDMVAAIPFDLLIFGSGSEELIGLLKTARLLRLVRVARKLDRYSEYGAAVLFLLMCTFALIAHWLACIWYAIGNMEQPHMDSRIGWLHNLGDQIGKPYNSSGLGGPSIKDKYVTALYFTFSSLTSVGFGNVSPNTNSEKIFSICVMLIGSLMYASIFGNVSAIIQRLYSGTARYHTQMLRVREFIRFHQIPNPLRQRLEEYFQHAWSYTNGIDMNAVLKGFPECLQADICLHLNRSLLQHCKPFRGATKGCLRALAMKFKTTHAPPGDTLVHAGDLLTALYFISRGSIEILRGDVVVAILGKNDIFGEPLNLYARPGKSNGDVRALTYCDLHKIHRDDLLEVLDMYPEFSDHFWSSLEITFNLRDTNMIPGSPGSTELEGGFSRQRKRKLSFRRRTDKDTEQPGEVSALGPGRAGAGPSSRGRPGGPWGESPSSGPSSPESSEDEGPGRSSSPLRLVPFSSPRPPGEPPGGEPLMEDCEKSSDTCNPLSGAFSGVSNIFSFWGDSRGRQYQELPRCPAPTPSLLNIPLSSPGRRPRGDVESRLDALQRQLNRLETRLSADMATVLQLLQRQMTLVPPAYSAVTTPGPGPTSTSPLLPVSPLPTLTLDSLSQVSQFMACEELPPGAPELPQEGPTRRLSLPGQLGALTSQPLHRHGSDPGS

| Structure (SMILES) | IC20 [nM] |
| --- | --- |
| Cc1cc(N2C[C@H]3CC[C@@H](C2)[C@@H]3Nc2nc3n(n2)CCCC[C@H]3c2ccc(F)c(F)c2F)ncn1 | 300 |

Biological target: Voltage-gated inwardly rectifying potassium channel KCNH2 (Homo sapiens, UniProt Q12809)
Test: as §1
Details: not given

Voltage-gated inwardly rectifying potassium channel KCNH2, sequence (Q12809 whole entry): as above

| Structure (SMILES) | IC50 [nM] |
| --- | --- |
| Cc1cc(N2C[C@H]3CC[C@@H](C2)[C@@H]3Nc2nc3n(n2)CCCC[C@H]3c2ccc(F)c(F)c2F)ncn1 | 1400 |

System: not listed separately
Test: Unbound fraction in human plasma
Format: ADME, cell-free
Details: not given

| Structure (SMILES) | fraction unbound |
| --- | --- |
| Cc1cc(N2C[C@H]3CC[C@@H](C2)[C@@H]3Nc2nc3n(n2)CCCC[C@H]3c2ccc(F)c(F)c2F)ncn1 | 0.054 |
| Cc1cc(N2C[C@H]3CC[C@@H](C2)[C@@H]3Nc2nc3n(n2)CCCN3c2cc(F)cc(F)c2)ncn1 | 0.01 |

System: not listed separately
Test: Glutathione reactivity of compound
Format: physicochemical
Details: not given

| Structure (SMILES) | Drug metabolism |
| --- | --- |
| Cc1cc(N2C[C@H]3CC[C@@H](C2)[C@@H]3Nc2nc3n(n2)CCCC[C@H]3c2ccc(F)c(F)c2F)ncn1 | Not Active |
| Cc1cc(N2C[C@H]3CC[C@@H](C2)[C@@H]3Nc2nc3n(n2)CCCN3c2cc(F)cc(F)c2)ncn1 | Not Active |

System: not listed separately
Test: Modulation of mouse gamma secretase in N2A cells assessed as reduction in total amyloid beta (1 to 42 residues) production
Format: cell-based
Details: not given

| Structure (SMILES) | IC50 [nM] |
| --- | --- |
| Cc1cc(N2C[C@H]3CC[C@@H](C2)[C@@H]3Nc2nc3n(n2)CCCC[C@H]3c2ccc(F)c(F)c2F)ncn1 | 2 |
| Cc1cc(N2C[C@H]3CC[C@@H](C2)[C@@H]3Nc2nc3n(n2)CCCN3c2cc(F)cc(F)c2)ncn1 | 3 |

System: not listed separately
Test: Distribution coefficient, logD of compound
Format: physicochemical
Details: octanol/water

| Structure (SMILES) | logD |
| --- | --- |
| Cc1cc(N2C[C@H]3CC[C@@H](C2)[C@@H]3Nc2nc3n(n2)CCCC[C@H]3c2ccc(F)c(F)c2F)ncn1 | 3.8 |
| Cc1cc(N2C[C@H]3CC[C@@H](C2)[C@@H]3Nc2nc3n(n2)CCCN3c2cc(F)cc(F)c2)ncn1 | 3.5 |

Biological target: Gamma-secretase
Test: Modulation of human gamma secretase expressed in HEK293 cells assessed as reduction in free amyloid beta (1 to 42 residues) production
Format: cell-based
Details: not given

| Structure (SMILES) | IC50 [nM] |
| --- | --- |
| Cc1cc(N2C[C@H]3CC[C@@H](C2)[C@@H]3Nc2nc3n(n2)CCCC[C@H]3c2ccc(F)c(F)c2F)ncn1 | 4 |

System: not listed separately
Test: Unbound fraction in mouse plasma
Format: ADME, cell-free
Details: not given

| Structure (SMILES) | fraction unbound |
| --- | --- |
| Cc1cc(N2C[C@H]3CC[C@@H](C2)[C@@H]3Nc2nc3n(n2)CCCC[C@H]3c2ccc(F)c(F)c2F)ncn1 | 0.014 |
| Cc1cc(N2C[C@H]3CC[C@@H](C2)[C@@H]3Nc2nc3n(n2)CCCN3c2cc(F)cc(F)c2)ncn1 | 0.006 |

Biological target: Gamma-secretase
Test: Modulation of human gamma secretase expressed in HEK293 cells assessed as reduction in total amyloid beta (1 to 42 residues) production
Format: cell-based
Details: not given

| Structure (SMILES) | IC50 [nM] |
| --- | --- |
| Cc1cc(N2C[C@H]3CC[C@@H](C2)[C@@H]3Nc2nc3n(n2)CCCC[C@H]3c2ccc(F)c(F)c2F)ncn1 | 2 |

System: not listed separately
Test: Oral bioavailability in Wistar rat at 3 mg/kg administered as single dose
Format: ADME, organism-based
Details: in vivo

| Structure (SMILES) | bioavailability [%] |
| --- | --- |
| Cc1cc(N2C[C@H]3CC[C@@H](C2)[C@@H]3Nc2nc3n(n2)CCCN3c2cc(F)cc(F)c2)ncn1 | 82 |

System: not listed separately
Test: Genotoxicity in Salmonella typhimurium by Ames test
Format: toxicity
Details: salmonella enterica subsp. enterica serovar typhimurium

| Structure (SMILES) | Activity |
| --- | --- |
| Cc1cc(N2C[C@H]3CC[C@@H](C2)[C@@H]3Nc2nc3n(n2)CCCC[C@H]3c2ccc(F)c(F)c2F)ncn1 | Non-Toxic |
| Cc1cc(N2C[C@H]3CC[C@@H](C2)[C@@H]3Nc2nc3n(n2)CCCN3c2cc(F)cc(F)c2)ncn1 | Non-Toxic |

System: not listed separately
Test: Modulation of mouse gamma secretase in N2A cells assessed as reduction in free amyloid beta (1 to 42 residues) production
Format: cell-based
Details: not given

| Structure (SMILES) | IC50 [nM] |
| --- | --- |
| Cc1cc(N2C[C@H]3CC[C@@H](C2)[C@@H]3Nc2nc3n(n2)CCCC[C@H]3c2ccc(F)c(F)c2F)ncn1 | 4 |
| Cc1cc(N2C[C@H]3CC[C@@H](C2)[C@@H]3Nc2nc3n(n2)CCCN3c2cc(F)cc(F)c2)ncn1 | 5 |

System: Mus musculus
Test: In vivo modulation of gamma secretase in APP Swedish double transgenic mouse assessed as reduction in free amyloid beta (1 to 42 residues) production measured after 4 hrs by AlphaLISA assay
Format: functional, organism-based
Details: not given

| Structure (SMILES) | IC50 [nM] |
| --- | --- |
| Cc1cc(N2C[C@H]3CC[C@@H](C2)[C@@H]3Nc2nc3n(n2)CCCC[C@H]3c2ccc(F)c(F)c2F)ncn1 | 2.5 |
| Cc1cc(N2C[C@H]3CC[C@@H](C2)[C@@H]3Nc2nc3n(n2)CCCN3c2cc(F)cc(F)c2)ncn1 | 3 |

System: not listed separately
Test: Clearance in mouse hepatocytes assessed per million cells
Format: ADME, cell-based, Hepatocyte
Details: read-out: CLH

| Structure (SMILES) | hepatocyte CLint [µL/min/1e6 cells] |
| --- | --- |
| Cc1cc(N2C[C@H]3CC[C@@H](C2)[C@@H]3Nc2nc3n(n2)CCCC[C@H]3c2ccc(F)c(F)c2F)ncn1 | 1.4 |
| Cc1cc(N2C[C@H]3CC[C@@H](C2)[C@@H]3Nc2nc3n(n2)CCCN3c2cc(F)cc(F)c2)ncn1 | 0.6 |

System: not listed separately
Test: Terminal half life in C57BL/6J mouse at 1 mg/kg, iv administered as single dose
Format: ADME, organism-based
Details: in vivo, read-out: beta t1/2 (converted)

| Structure (SMILES) | half-life [h] |
| --- | --- |
| Cc1cc(N2C[C@H]3CC[C@@H](C2)[C@@H]3Nc2nc3n(n2)CCCC[C@H]3c2ccc(F)c(F)c2F)ncn1 | 3.4 |

System: not listed separately
Test: Volume of distribution at steady state in Wistar rat at 1 mg/kg, iv administered as single dose
Format: ADME, organism-based
Details: in vivo, read-out: Vdss

| Structure (SMILES) | Vd [L/kg] |
| --- | --- |
| Cc1cc(N2C[C@H]3CC[C@@H](C2)[C@@H]3Nc2nc3n(n2)CCCN3c2cc(F)cc(F)c2)ncn1 | 1.1 |

System: not listed separately
Test: Unbound fraction in rat plasma
Format: ADME, cell-free
Details: not given

| Structure (SMILES) | fraction unbound |
| --- | --- |
| Cc1cc(N2C[C@H]3CC[C@@H](C2)[C@@H]3Nc2nc3n(n2)CCCC[C@H]3c2ccc(F)c(F)c2F)ncn1 | 0.014 |
| Cc1cc(N2C[C@H]3CC[C@@H](C2)[C@@H]3Nc2nc3n(n2)CCCN3c2cc(F)cc(F)c2)ncn1 | 0.014 |

System: not listed separately
Test: Clearance in C57BL/6J mouse at 1 mg/kg, iv administered as single dose
Format: ADME, organism-based
Details: in vivo

| Structure (SMILES) | clearance [mL/min/kg] |
| --- | --- |
| Cc1cc(N2C[C@H]3CC[C@@H](C2)[C@@H]3Nc2nc3n(n2)CCCC[C@H]3c2ccc(F)c(F)c2F)ncn1 | 5 |

System: not listed separately
Test: Clearance in rat hepatocytes assessed per million cells
Format: ADME, cell-based, Hepatocyte
Details: read-out: CLH

| Structure (SMILES) | hepatocyte CLint [µL/min/1e6 cells] |
| --- | --- |
| Cc1cc(N2C[C@H]3CC[C@@H](C2)[C@@H]3Nc2nc3n(n2)CCCC[C@H]3c2ccc(F)c(F)c2F)ncn1 | 43 |
| Cc1cc(N2C[C@H]3CC[C@@H](C2)[C@@H]3Nc2nc3n(n2)CCCN3c2cc(F)cc(F)c2)ncn1 | 6.4 |

System: P-gp
Test: Substrate activity at mouse P-gp assessed as efflux ratio
Format: ADME
Details: not told

| Structure (SMILES) | efflux ratio |
| --- | --- |
| Cc1cc(N2C[C@H]3CC[C@@H](C2)[C@@H]3Nc2nc3n(n2)CCCC[C@H]3c2ccc(F)c(F)c2F)ncn1 | 3.3 |

System: not listed separately
Test: Clearance in Wistar rat at 1 mg/kg, iv administered as single dose
Format: ADME, organism-based
Details: in vivo

| Structure (SMILES) | clearance [mL/min/kg] |
| --- | --- |
| Cc1cc(N2C[C@H]3CC[C@@H](C2)[C@@H]3Nc2nc3n(n2)CCCN3c2cc(F)cc(F)c2)ncn1 | 3.5 |
